{"source": "patent US20080311103A1", "about": "“Anti-Inflammatory Peptides and Methods of Use Thereof” (YEDA RESEARCH AND DEVELOPMENT CO. LTD. at THE WEIZMANN …, priority 2004, published 2008)", "key": {"T cells": {"system": "T cells", "assay": "Chemotaxis assay: T cell migration toward SDF-1α", "type": "cell-based", "conditions": "concentration range 10-1000 ng/ml; SDF-1α 250 ng/ml; 3 hr", "protocol": "The migration of ^51-[Cr]-labeled T cells was examined in […] Transwell chemotaxis apparatus (6.5-mm diameter; Corning, N.Y.), consisting of two compartments separated by polycarbonate filters (5 μm pore size) pretreated (1 hr, 37° C.) with FN (25 μg/ml). ^51-[Cr]-labeled T cells (2×10^5 in 100 μl of RPMI containing 0.1% BSA and antibiotics), which were pre-incubated with the indicated concentrations of peptides (30 min, 37° C.), were added to the upper chambers. The bottom chambers contained 0.6 ml of the same media, with or without human Stromal cell-Derived Factor-1α (SDF-1α; 250 ng/ml). After incubation at 37° C. for 3 hr (7.5% CO2-humidified atmosphere), cells that had transmigrated into the lower wells were collected, centrifuged, and lysed (in 100 μl of distilled water containing 1 M NaOH and 0.1% Triton X-100), and the radioactivity in the resulting supernatants was determined with a γ-counter. The percentage (±SD) of cell migration was calculated as the radioactivity counts in the lysates of the lower chambers (representative of the migrating cells) divided by the total counts (representative of 2×10^5 cells)."}, "Jurkat and THP-1 cells": {"system": "Jurkat and THP-1 cells", "assay": "TNFα secretion by PMA/PHA induced Jurkat and THP-1 cells", "type": "cell-based, human", "conditions": "peptide 1 μg/ml; 48 hours; ELISA", "protocol": "Jurkat cells human T cell lymphoma line) (2×10^6 cells/ml) cultured in RPMI-1640 supplemented with 10% FCS were activated with PMA (50 ng/ml) and phytohaemagglutinin PHA (4 µg/ml) for 6 hours at 37° C. (7.5% CO2-humidified atmosphere). Thereafter, the cells were washed, plated on 24-well plates (10^6 cells/well in 0.5 ml), and incubated (1 hour at 37° C., 7.5% CO2-humidified atmosphere) with the indicated concentrations of peptides 1-5. Following the incubation, THP-1 cells (human monocytic cell line derived from a patient with acute monocytic leukaemia; 1.25×10^5 cells/0.5 ml/well) were added to the wells. After 48 hours, the supernatants were collected and their TNF[…] content was determined by ELISA using anti TNF[…] mAb (Pharmingen; San Diego, Calif.) according to the manufacturer's instructions."}, "[1]": {"system": "anti-CD3 antibody induced TNFα secretion from T cells", "assay": "TNFα secretion by anti-CD3 activated T cells", "type": "cell-based, human", "conditions": "peptide 100 ng/ml; 24 hours; ELISA; FIG. 7A", "protocol": "(§1) Human T cells were purified and maintained in culture (RPMI containing 10% FCS, 1% Pyruvate, 1% glutamine, 1% antibiotics, 7.5% CO2, humidified atmosphere) for 15 hr before they were transferred to RPMI and activated (2 hr, 37° C.) with the indicated concentrations of the peptides. The cells were then plated (1.5×10^6 cells/0.5 ml/well) in 24 wells plates (non-tissue culture grade) precoated with anti-CD3 mAb in order to stimulate the cells to secrete cytokines. After 24 hours, the supernatants were collected and their cytokine content (TNFα and IFNγ) was determined by ELISA using anti-IFNγ and anti TNFα mAb (Pharmingen; San Diego, Calif.) according to the manufacturer's instructions."}, "[2]": {"system": "anti-CD3 antibody induced IFNγ secretion from T cells", "assay": "IFNγ secretion by anti-CD3 activated T cells", "type": "cell-based, human", "set-up": "concentration or dose not given beside the values", "conditions": "24 hours; ELISA; FIG. 7B", "protocol": "as §1"}}, "data": [{"sequence": "WDNLEKETEGL [peptide No. 3, residues 96-106 of Apo A-I; identified in wound fluids, then synthesized]", "values": [{"measurement": "inhibition of T cell transmigration toward SDF-1α", "setting": "T cells", "value": "did not show a significant inhibition"}, {"measurement": "inhibition of TNFα secretion by Jurkat and THP-1 cells compared to PMA/PHA alone", "setting": "Jurkat and THP-1 cells", "value": 50, "unit": "%"}, {"measurement": "inhibition of anti-CD3 antibody induced TNFα secretion from T cells", "setting": "[1]", "value": 50, "unit": "%"}, {"measurement": "inhibition of anti-CD3 antibody induced IFNγ secretion from T cells", "setting": "[2]", "value": 65, "unit": "%"}]}]}
